We go through 22 compounds from patent publication US8906904B2, “Alkoxy pyrazoles as soluble guanylate cyclase activators” (Boehringer Ingelheim International GmbH, priority 2012, dated 2014).

In data set [1] the target is T1, human soluble guanylate cyclase alpha 1 and beta 1 subunits (sGC) (Homo sapiens, UniProt Q02108+Q02153).
T1 construct: expressed in transfected cells; host or cells: Chinese hamster ovary (CHO) cells, stably transfected
T1 sequence (Q02108 1-690): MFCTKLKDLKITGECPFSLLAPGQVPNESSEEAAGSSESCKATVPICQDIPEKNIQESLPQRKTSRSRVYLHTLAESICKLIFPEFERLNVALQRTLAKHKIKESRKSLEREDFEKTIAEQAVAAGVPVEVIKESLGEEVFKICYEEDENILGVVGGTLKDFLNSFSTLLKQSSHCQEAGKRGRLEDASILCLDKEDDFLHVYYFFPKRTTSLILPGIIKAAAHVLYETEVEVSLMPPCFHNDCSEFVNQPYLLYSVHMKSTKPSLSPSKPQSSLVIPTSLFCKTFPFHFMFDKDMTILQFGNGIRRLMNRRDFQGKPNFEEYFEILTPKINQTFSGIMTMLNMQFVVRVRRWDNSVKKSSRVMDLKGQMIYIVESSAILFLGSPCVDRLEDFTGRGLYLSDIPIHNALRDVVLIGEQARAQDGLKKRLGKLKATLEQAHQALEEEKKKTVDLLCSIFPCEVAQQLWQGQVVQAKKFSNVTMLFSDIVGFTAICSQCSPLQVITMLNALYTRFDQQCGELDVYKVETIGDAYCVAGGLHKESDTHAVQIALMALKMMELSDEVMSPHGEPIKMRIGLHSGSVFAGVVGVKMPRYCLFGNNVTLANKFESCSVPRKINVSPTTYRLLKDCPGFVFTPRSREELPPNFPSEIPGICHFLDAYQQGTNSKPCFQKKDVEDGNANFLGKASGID
T1 sequence (Q02153 1-619): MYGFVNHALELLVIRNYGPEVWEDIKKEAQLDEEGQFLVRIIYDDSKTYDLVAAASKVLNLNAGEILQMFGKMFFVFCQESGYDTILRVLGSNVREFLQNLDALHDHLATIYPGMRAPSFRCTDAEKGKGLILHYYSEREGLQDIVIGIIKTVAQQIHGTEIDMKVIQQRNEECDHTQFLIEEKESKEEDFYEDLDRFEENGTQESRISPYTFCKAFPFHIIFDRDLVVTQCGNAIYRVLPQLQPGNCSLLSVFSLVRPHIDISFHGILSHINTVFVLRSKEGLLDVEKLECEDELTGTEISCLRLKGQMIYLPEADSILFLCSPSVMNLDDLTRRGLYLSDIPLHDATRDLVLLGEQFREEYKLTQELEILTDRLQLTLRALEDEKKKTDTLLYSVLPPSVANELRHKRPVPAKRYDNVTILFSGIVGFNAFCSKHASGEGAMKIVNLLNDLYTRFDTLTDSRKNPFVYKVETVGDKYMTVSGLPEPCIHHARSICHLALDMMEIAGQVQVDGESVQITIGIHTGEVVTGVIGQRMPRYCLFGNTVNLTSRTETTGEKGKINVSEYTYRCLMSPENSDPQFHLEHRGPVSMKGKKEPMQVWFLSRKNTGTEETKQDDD
Description: sGC cellular activator assay (cGMP, HTRF). It is filed as cell-based. The following applies: CHO cells stably expressing human sGC alpha 1/beta 1, preincubated with 40 microM ODQ; cGMP readout; assay run with and without 50% human serum, Table 2 does not say which. Here is the method:
The sGC cellular activator assay is performed in the presence and absence of 50% human serum (HS) using Chinese hamster ovary cells that have been stably transfected to express the human soluble guanylate cyclase alpha 1 and beta 1 subunits (sGC). Cells are preincubated with 40 microM 1H-[1,2,4]oxadiazolo[4,3-a]quinoxalin-1-one (ODQ), an sGC inhibitor, for one h in buffer containing 0.1% bovine serum albumin and 3-isobutyl-1-methylxanthine (IBMX). Concentration response curves are prepared for test compounds in DMSO. An intermediate dilution of the compounds is performed in either buffer containing IBMX or type AB HS containing IBMX. Diluted compounds are added to cells and they are incubated at room temperature for thirty min. cGMP is measured using a CisBio homogeneous time resolved fluorescence kit and the EC50 is calculated for each compound.
Representative compounds of the present invention were tested for activity the above assay. Preferred compounds have an EC50 of <1,000 nM in the above assay and more preferred compounds have an EC50<200 nM.

A short description of data set [2]: human liver microsome (HLM) metabolic stability assay. It counts as in vitro ADME. The note with it: human liver microsomes; % hepatic blood flow calculated from t1/2. Here is the method:
The 5 time point, high-throughput human liver microsome (HLM) metabolic stability assay is designed to determine in vitro compound metabolism. Compounds are incubated with HLMs at a concentration of 1 uM, at 37° C., for a total of 60 min. The percent of compound remaining at 5, 15, 30, and 60 min is used to calculate the t½ (min), CLint (mL/min/kg), CLh (mL/min/kg), and % Qh. The assay is based on a 96-well format and can accommodate up to 92 compounds per plate (n=1).
Using the 96-well multi-channel head, the Biomek FX, equipped with a Peltier heating block/shaker, is programmed to accomplish the following steps: • 1. Pipette 175 uL of 1.15 mg/mL microsomes into each of the 96 conical inserts (Analytical Sales and Products, catalog number 96PL05) that fit into the plate of the Peltier heating block/shaker (the incubation plate) • 2. Add 5 uL of compounds from the assay plate to the microsomes and shake the mixture at 600 rpm at 42.1° C. for 10 min (a setting of 42.1° C. on the Peltier is required for the samples to incubate at 37° C.) • 3. After 10 min, prompt the user to add the NADPH plate to the deck and add 20 uL from the NADPH plate to the incubation plate to start the reaction • 4. Add 215 uL of 100%, cold acetonitrile containing an internal standard(s) to a 0 minute, 5 minute, 15 minute, 30 minute, and 60 minute “quench” plate • 5. At 0 min, 5 min, 15 min, 30 min, and 60 min into the incubation, aspirate 12 uL from the incubation mixture and add it to the quench solution to stop the reaction • 6. Add 185 uL HPLC grade water to each well of the 0, 5, 15, 30 and 60 minute quench plates to dilute compounds to the appropriate concentration for the mass spectrometer
After all time points are collected, the quench plates are sealed with 96-well pierceable plate mats or heat sealing foil and centrifuged at 3000 rpm for 15 min to pellet the microsomes.
The plates are analyzed using LC/MS/MS with electron spray ionization (ESI) and the previously determined MRM transitions. The LC method includes the following parameters:
Using an Excel template in Activitybase, the peak areas corresponding to 5, 15, 30 and 60 min are compared to the peak area at 0 min to calculate the percent of remaining compound using the following equation: Percent compound remaining=(AUC at Time t min/AUC at Time 0 min)×100 where t=0, 5, 15, 30 or 60 min.
Time (min) is plotted against the natural logarithm (Ln) of the percent compound remaining to determine the slope. The slope is used to calculate t½ (min) using the equation, t½=0.693/slope.
Preferred compounds have % Qh values of less than 24.

For the compound `COc1c(C(=O)O)cnn1-c1cccc(-c2cccc(Cl)c2OCc2ccc3c(c2)CCN(C2COC2)C3)n1` [Compound 7], in data set [1], a half-maximal response (EC50) required 32 nM. Besides, the “HLM (% Qh)” value in data set [2] was below 24 % Qh.

The compound `Cc1cccc(-c2cccc(-n3ncc(C(=O)O)c3OC(C)C)n2)c1OCc1ccc2c(c1)CCN([C@H]1CCCOC1)C2` [Compound 115] returned an EC50 in data set [1] of 68 nM. The “HLM (% Qh)” value in data set [2] is 25 % Qh.

Turning to `CCOc1c(C(=O)O)cnn1-c1cccc(-c2cccc(C)c2OCc2ccc3c(c2C)CCN(C[C@@H]2CCCOC2)C3)n1` [Compound 152], it took 14 nM to reach a half-maximal effect in data set [1] (EC50). Moreover, in data set [2], the “HLM (% Qh)” value was below 24 % Qh.

Turning to `COc1c(C(=O)O)cnn1-c1cccc(-c2cccc(C)c2OCc2ccc3c(c2C)CCN(C[C@@H]2COCCO2)C3)n1` [Compound 139], in data set [1], the concentration giving a half-maximal response (EC50) turned out to be 8.4 nM. For the same compound, the “HLM (% Qh)” value in data set [2] is given as below 24 % Qh.

As for `COc1c(C(=O)O)cnn1-c1cccc(-c2cccc(C)c2OCc2cc3c(cc2C)CN(C2CCOCC2)C3)n1` [Compound 143], in data set [1], the EC50 was 160 nM. In data set [2], the “HLM (% Qh)” value is below 24 % Qh.

For `CCOc1c(C(=O)O)cnn1-c1cccc(-c2cccc(C)c2OCc2ccc3c(c2C)CCN(C[C@H]2COC(C)(C)O2)C3)n1` [Compound 179], in data set [1], a half-maximal effect (EC50) was put at 59 nM. Further, in data set [2], the “HLM (% Qh)” value is below 24 % Qh.

`COCCOc1c(C(=O)O)cnn1-c1cccc(-c2cccc(C)c2OCc2ccc3c(c2C)CCN(C2CCOCC2)C3)n1` [Compound 151] gave an EC50 in data set [1] of 130 nM. Besides, in data set [2], the “HLM (% Qh)” value is on record as below 24 % Qh.

Regarding `CCOc1c(C(=O)O)cnn1-c1cccc(-c2cccc(C)c2OCc2ccc3c(c2)OCCN(C2CCOCC2)C3)n1` [Compound 131], the EC50 in data set [1] turned out to be 410 nM. Further, the “HLM (% Qh)” value in data set [2] was 28 % Qh.

As for `CCOc1c(C(=O)O)cnn1-c1cccc(-c2cccc(C)c2OCc2ccc3c(c2C)CCN([C@H]2CCOC2)C3)n1` [Compound 125], the EC50 in data set [1] was found to be 27 nM. In data set [2], the “HLM (% Qh)” value is recorded as below 24 % Qh.

With `Cc1cccc(-c2cccc(-n3ncc(C(=O)O)c3OCC(C)C)n2)c1OCc1ccc2c(c1C)CCN(C1CCOCC1)C2` [Compound 134], the EC50 in data set [1] is 46 nM. In data set [2], the “HLM (% Qh)” value was 32 % Qh.

`COc1c(C(=O)O)cnn1-c1cccc(-c2cccc(C)c2OCc2ccc3c(c2C)CCN([C@H]2CCOC2)C3)n1` [Compound 105] gave an EC50 in data set [1] of 17 nM. Also, in data set [2], the “HLM (% Qh)” value is reported as below 24 % Qh.

For `CCOc1c(C(=O)O)cnn1-c1cccc(-c2cccc(C)c2OCc2ccc3c(c2)CCN(CC2CCCO2)C3)n1` (centres unmarked) [Compound 101, 5-ethoxy-1-(6-{3-methyl-2-[2-(tetrahydro-furan-2-ylmethyl)-1,2,3,4-tetrahydro-isoquinolin-6-ylmethoxy]-phenyl}-pyridin-2-yl)-1H-pyrazole-4-carboxylic acid], the EC50 in data set [1] turned out to be 110 nM. Moreover, in data set [2], the “HLM (% Qh)” value is recorded as below 24 % Qh.

For the compound `CCOc1c(C(=O)O)cnn1-c1cccc(-c2cccc(C)c2OCc2ccc3c(c2)CCN(CC2CC(=O)N(C)C2)C3)n1` (centres unmarked) [Compound 97, 5-ethoxy-1-(6-{3-methyl-2-[2-(1-methyl-5-oxo-pyrrolidin-3-ylmethyl)-1,2,3,4-tetrahydro-isoquinolin-6-ylmethoxy]-phenyl}-pyridin-2-yl)-1H-pyrazole-4-carboxylic acid], in data set [1], the EC50 is 67 nM. Further, in data set [2], the “HLM (% Qh)” value is below 24 % Qh.

As for `COc1c(C(=O)O)cnn1-c1cccc(-c2ccc(C)cc2OCc2ccc3c(c2C)CCN(C2CCOCC2)C3)n1` [Compound 99], in data set [1], the half-maximal effective concentration (EC50) amounted to 160 nM. Further, the “HLM (% Qh)” value in data set [2] was below 24 % Qh.

On to `CCOc1c(C(=O)O)cnn1-c1cccc(-c2cccc(C)c2OCc2cc3c(c(C(F)(F)F)c2)CN(C2CCOCC2)CC3)n1` [Compound 157], for which the EC50 in data set [1] worked out at 25 nM. In data set [2], the “HLM (% Qh)” value is 31 % Qh.

Regarding `CCOc1c(C(=O)O)cnn1-c1cccc(-c2cccc(C)c2OCc2ccc3c(c2)CCN([C@H]2CCOC2)C3)n1` [Compound 110], the EC50 in data set [1] came out at 45 nM. Besides, in data set [2], the “HLM (% Qh)” value was below 24 % Qh.

Consider `COc1c(C(=O)O)cnn1-c1cccc(-c2cccc(C)c2OCc2cc(C)c3c(c2C)CN(C2CCOCC2)C3)n1` [Compound 145], for which, in data set [1], the EC50 came out at 13 nM. The “HLM (% Qh)” value in data set [2] is recorded as below 24 % Qh.

Consider `Cc1cccc(-c2cccc(-n3ncc(C(=O)O)c3OC(C)C)n2)c1OCc1ccc2c(c1C)CCN(C1CCOCC1)C2` [Compound 104], for which the EC50 in data set [1] is 31 nM. In addition, the “HLM (% Qh)” value in data set [2] is listed as 26 % Qh.

As to `CCOc1c(C(=O)O)cnn1-c1cccc(-c2cccc(C)c2OCc2ccc3c(c2C)CCN(C[C@H]2COCCO2)C3)n1` [Compound 170], a half-maximal effect in data set [1] (EC50) was put at 28 nM. Also, the “HLM (% Qh)” value in data set [2] is recorded as below 24 % Qh.

In the case of `COc1c(C(=O)O)cnn1-c1cccc(-c2cccc(C)c2OCc2cc(C)c3c(c2C)CCN(C2CCOCC2)C3)n1` [Compound 120], a half-maximal effect in data set [1] (EC50) was put at 12 nM. The “HLM (% Qh)” value in data set [2] is recorded as below 24 % Qh.

With `CCOc1c(C(=O)O)cnn1-c1cccc(-c2cccc(C)c2OCc2ccc3c(c2C)CCN(C(=O)C2CCOCC2)C3)n1` [Compound 147, 5-Ethoxy-1-(6-{3-methyl-2-[5-methyl-2-(tetrahydro-pyran-4-carbonyl)-1,2,3,4-tetrahydro-isoquinolin-6-ylmethoxy]-phenyl}-pyridin-2-yl)-1H-pyrazole-4-carboxylic acid], in data set [1], the half-maximal effective concentration (EC50) is 450 nM. Also, the “HLM (% Qh)” value in data set [2] is below 24 % Qh.

Compound `CCOc1c(C(=O)O)cnn1-c1cccc(-c2cccc(C)c2OCc2ccc3c(c2C)CCN(C2CCOCC2)C3)n1` [Compound 114] came in with an EC50 in data set [1] of 40 nM. Also, the “HLM (% Qh)” value in data set [2] is below 24 % Qh.
